Tests used:
[1] = system: Acinetobacter baumannii; assay: Antibacterial activity against Acinetobacter baumannii ATCC 17978 assessed as inhibition of visible bacterial growth by CLSI based broth-microdilution method; format: functional
[2] = system: Pseudomonas aeruginosa; assay: Synergistic antibacterial activity against Pseudomonas aeruginosa PAO1 assessed as fold change in eravacycline MIC by checkerboard analysis relative to eravacycline alone; format: functional
[3] = system: Pseudomonas aeruginosa; assay: Antibacterial activity against Pseudomonas aeruginosa PA262 assessed as inhibition of visible bacterial growth by CLSI based broth-microdilution method; format: functional
[4] = system: Pseudomonas aeruginosa; assay: Antibacterial activity against Pseudomonas aeruginosa PA200 assessed as inhibition of visible bacterial growth by CLSI based broth-microdilution method; format: functional
[5] = system: Pseudomonas aeruginosa; assay: Synergistic antibacterial activity against Pseudomonas aeruginosa PA259 in presence of minocycline by checkerboard assay; format: functional
[6] = system: Pseudomonas aeruginosa; assay: Synergistic antibacterial activity against Pseudomonas aeruginosa PA259 in presence of tigecycline by checkerboard assay; format: functional
[7] = system: Pseudomonas aeruginosa; assay: Synergistic antibacterial activity against Pseudomonas aeruginosa PA262 in presence of doxycycline by checkerboard assay; format: functional
[8] = system: Pseudomonas aeruginosa; assay: Synergistic antibacterial activity against Pseudomonas aeruginosa PA262 in presence of tigecycline by checkerboard assay; format: functional
[9] = system: Pseudomonas aeruginosa; assay: Synergistic antibacterial activity against Pseudomonas aeruginosa PA264 in presence of minocycline by checkerboard assay; format: functional
[10] = system: Pseudomonas aeruginosa; assay: Synergistic antibacterial activity against Pseudomonas aeruginosa PA100036 in presence of minocycline by checkerboard assay; format: functional
[11] = system: Pseudomonas aeruginosa; assay: Synergistic antibacterial activity against Pseudomonas aeruginosa PA100036 in presence of doxycycline by checkerboard assay; format: functional
[12] = system: Pseudomonas aeruginosa; assay: Synergistic antibacterial activity against Pseudomonas aeruginosa PA100036 in presence of eravacycline by checkerboard assay; format: functional
[13] = system: Pseudomonas aeruginosa; assay: Synergistic antibacterial activity against Pseudomonas aeruginosa PA101243 in presence of doxycycline by checkerboard assay; format: functional
[14] = system: Pseudomonas aeruginosa; assay: Synergistic antibacterial activity against Pseudomonas aeruginosa PA101243 in presence of tigecycline by checkerboard assay; format: functional
[15] = system: Pseudomonas aeruginosa; assay: Synergistic antibacterial activity against Pseudomonas aeruginosa PA095 in presence of minocycline by checkerboard assay; format: functional
[16] = system: Pseudomonas aeruginosa; assay: Synergistic antibacterial activity against Pseudomonas aeruginosa PA095 in presence of tigecycline by checkerboard assay; format: functional
[17] = system: Pseudomonas aeruginosa; assay: Synergistic antibacterial activity against Pseudomonas aeruginosa PA200 in presence of minocycline by checkerboard assay; format: functional
[18] = system: Pseudomonas aeruginosa; assay: Synergistic antibacterial activity against Pseudomonas aeruginosa PA200 in presence of doxycycline by checkerboard assay; format: functional
[19] = system: Pseudomonas aeruginosa; assay: Antibacterial activity against Pseudomonas aeruginosa PA262 assessed as eravacycline MIC by CLSI based broth-microdilution method; format: functional
[20] = system: Pseudomonas aeruginosa; assay: Antibacterial activity against Pseudomonas aeruginosa PA114228 assessed as doxycycline MIC by CLSI based broth-microdilution method; format: functional
[21] = system: Pseudomonas aeruginosa; assay: Antibacterial activity against Pseudomonas aeruginosa PA114228 assessed as tigecycline MIC by CLSI based broth-microdilution method; format: functional
[22] = system: Pseudomonas aeruginosa; assay: Antibacterial activity against Pseudomonas aeruginosa PA101243 assessed as minocycline MIC by CLSI based broth-microdilution method; format: functional
[23] = system: Pseudomonas aeruginosa; assay: Antibacterial activity against Pseudomonas aeruginosa PA095 assessed as eravacycline MIC by CLSI based broth-microdilution method; format: functional
[24] = system: Pseudomonas aeruginosa; assay: Antibacterial activity against Pseudomonas aeruginosa PA200 assessed as tigecycline MIC by CLSI based broth-microdilution method; format: functional
[25] = system: Pseudomonas aeruginosa; assay: Synergistic antibacterial activity against Pseudomonas aeruginosa PA259 assessed as fractional inhibitory concentration index in presence of tigecycline by checkerboard assay; format: functional
[26] = system: Pseudomonas aeruginosa; assay: Synergistic antibacterial activity against Pseudomonas aeruginosa PA262 assessed as fractional inhibitory concentration index in presence of eravacycline by checkerboard assay; format: functional
[27] = system: Pseudomonas aeruginosa; assay: Synergistic antibacterial activity against Pseudomonas aeruginosa PA264 assessed as fractional inhibitory concentration index in presence of doxycycline by checkerboard assay; format: functional
[28] = system: Pseudomonas aeruginosa; assay: Synergistic antibacterial activity against Pseudomonas aeruginosa PA264 assessed as fractional inhibitory concentration index in presence of tigecycline by checkerboard assay; format: functional
[29] = system: Pseudomonas aeruginosa; assay: Synergistic antibacterial activity against Pseudomonas aeruginosa PA101243 assessed as fractional inhibitory concentration index in presence of minocycline by checkerboard assay; format: functional
[30] = system: Pseudomonas aeruginosa; assay: Synergistic antibacterial activity against Pseudomonas aeruginosa PA101243 assessed as fractional inhibitory concentration index in presence of eravacycline by checkerboard assay; format: functional
[31] = system: Pseudomonas aeruginosa; assay: Synergistic antibacterial activity against Pseudomonas aeruginosa PA095 assessed as fractional inhibitory concentration index in presence of minocycline by checkerboard assay; format: functional
[32] = system: Pseudomonas aeruginosa; assay: Synergistic antibacterial activity against Pseudomonas aeruginosa PA095 assessed as fractional inhibitory concentration index in presence of doxycycline by checkerboard assay; format: functional
[33] = system: Pseudomonas aeruginosa; assay: Synergistic antibacterial activity against Pseudomonas aeruginosa PA095 assessed as fractional inhibitory concentration index in presence of eravacycline by checkerboard assay; format: functional
[34] = system: Pseudomonas aeruginosa; assay: Synergistic antibacterial activity against Pseudomonas aeruginosa PA259 assessed as fold change in minocycline MIC by CLSI based broth-microdilution method relative to minocycline alone; format: functional
[35] = system: Pseudomonas aeruginosa; assay: Synergistic antibacterial activity against Pseudomonas aeruginosa PA100036 assessed as fold change in tigecycline MIC by CLSI based broth-microdilution method relative to tigecycline alone; format: functional
[36] = system: Pseudomonas aeruginosa; assay: Synergistic antibacterial activity against Pseudomonas aeruginosa PA114228 assessed as fold change in minocycline MIC by CLSI based broth-microdilution method relative to minocycline alone; format: functional
[37] = system: Pseudomonas aeruginosa; assay: Synergistic antibacterial activity against Pseudomonas aeruginosa PA114228 assessed as fold change in eravacycline MIC by CLSI based broth-microdilution method relative to eravacycline alone; format: functional
[38] = system: Pseudomonas aeruginosa; assay: Synergistic antibacterial activity against Pseudomonas aeruginosa PA101243 assessed as fold change in tigecycline MIC by CLSI based broth-microdilution method relative to tigecycline alone; format: functional
[39] = system: Pseudomonas aeruginosa; assay: Synergistic antibacterial activity against Pseudomonas aeruginosa PA095 assessed as fold change in doxycycline MIC by CLSI based broth-microdilution method relative to doxycycline alone; format: functional
[40] = system: Pseudomonas aeruginosa; assay: Synergistic antibacterial activity against Pseudomonas aeruginosa PA200 assessed as fold change in doxycycline MIC by CLSI based broth-microdilution method relative to doxycycline alone; format: functional
[41] = system: Pseudomonas aeruginosa; assay: Synergistic antibacterial activity against Pseudomonas aeruginosa PA200 assessed as fold change in tigecycline MIC by CLSI based broth-microdilution method relative to tigecycline alone; format: functional
[42] = system: Pseudomonas aeruginosa; assay: Antibacterial activity against Pseudomonas aeruginosa PAO1 assessed as inhibition of bacterial growth by measuring fold change in MIC in presence of 5 % fetal bovine serum by CLSI protocol based assay; format: functional
[43] = system: Pseudomonas aeruginosa; assay: Antibacterial activity against Pseudomonas aeruginosa PAO1 assessed as inhibition of bacterial growth by measuring fold change in MIC in presence of 10 % fetal bovine serum by CLSI protocol based assay; format: functional
[44] = system: Pseudomonas aeruginosa; assay: Antibacterial activity against Pseudomonas aeruginosa PAO1 assessed as inhibition of bacterial growth by measuring fold change in MIC in presence of 50 % fetal bovine serum by CLSI protocol based assay; format: functional
[45] = system: HEK293; assay: Cytotoxicity against HEK293 cells assessed as reduction in cell viability at 7 uM; format: toxicity, cell-based; conditions: human, hek293, 7 µM
[46] = system: HepG2; assay: Cytotoxicity against human HepG2 cells assessed as inhibition of cell vitality at 162 uM; format: functional; parameters: scale not given: the % may be the effect or the level left

`Cl.Cl.Cl.Cl.Cl.Cl.NC[C@H]1O[C@H](O[C@H]2[C@H](OCCCCCCCCCCCCNC(=O)c3cn(C4CC4)c4cc(N5CCNCC5)c(F)cc4c3=O)[C@@H](O[C@H]3O[C@H](CO)[C@@H](O)[C@H](N)[C@H]3O)[C@H](N)C[C@@H]2N)[C@H](N)C[C@@H]1O` was tested, and the MIC [1] was greater than 128 µg/mL, the “fold change (FC)” value [2] was 64 and the MIC [3] was greater than 128 µg/mL. For the same compound, the MIC [4] was 32 µg/mL, the MIC [5] was 8 µg/mL and the MIC [6] was 8 µg/mL. The MIC [7] was 8 µg/mL, the MIC [8] was 8 µg/mL and the MIC [9] was 8 µg/mL. For the same compound, the MIC [10] was 8 µg/mL, the MIC [11] was 8 µg/mL and the MIC [12] was 8 µg/mL. The MIC [13] was 8 µg/mL, the MIC [14] was 8 µg/mL and the MIC [15] was 2 µg/mL. It also gave an MIC [16] of 2 µg/mL, an MIC [17] of 8 µg/mL and an MIC [18] of 8 µg/mL. It also gave an MIC [19] of 1 µg/mL, an MIC [20] of 32 µg/mL and an MIC [21] of 16 µg/mL. The MIC [22] was 2 µg/mL, the MIC [23] was 1 µg/mL and the MIC [24] was 0.25 µg/mL. The “fractional inhibitory concentration index (FICI)” value [25] was 0.002, the “fractional inhibitory concentration index (FICI)” value [26] was 0.062 and the “fractional inhibitory concentration index (FICI)” value [27] was 0.015. For the same compound, the “fractional inhibitory concentration index (FICI)” value [28] was 0.004, the “fractional inhibitory concentration index (FICI)” value [29] was 0.25 and the “fractional inhibitory concentration index (FICI)” value [30] was 0.625. For the same compound, the “fractional inhibitory concentration index (FICI)” value [31] was 0.5, the “fractional inhibitory concentration index (FICI)” value [32] was 0.25 and the “fractional inhibitory concentration index (FICI)” value [33] was 0.265. For the same compound, the “fold change (FC)” value [34] was 512, the “fold change (FC)” value [35] was 64 and the “fold change (FC)” value [36] was 512. For the same compound, the “fold change (FC)” value [37] was 256, the “fold change (FC)” value [38] was 4 and the “fold change (FC)” value [39] was 16. The “fold change (FC)” value [40] was 64, the “fold change (FC)” value [41] was 16 and the “fold change (FC)” value [42] was greater than 128. The “fold change (FC)” value [43] was greater than 512, the “fold change (FC)” value [44] was 1 and the Activity [45] was “Non-toxic”. The Activity [46] was 40%.

Source: ChEMBL document CHEMBL6078622, “Enhancing outer membrane permeability of tetracycline antibiotics in P. aeruginosa using TOB-CIP conjugates” (RSC Med Chem, 2024)
